Data from PubChem BioAssay AID248 (DTP/NCI, 2004).
Where “and” joins values, the source holds several entries; their conditions need not be identical. Equal values may be shown once. Toxic doses and inconclusive results are not listed. Cut-off read from the data, not from the text of the source: active = T/C of 150% or more; inactive = T/C below 125%.

Test system: L1210 leukemia ip in BDF1 mice, survival T/C
Test: NCI In Vivo Anticancer Drug Screen. Data for tumor model L1210 Leukemia (intraperitoneal) in B6D2F1 (BDF1) mice
Settings: higher = longer survival
Method in brief: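 Survival endpoint. Drug-treated group vs vehicle group, expressed as T divided by C. Tumor passaged by transplantation.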

Measured: T/C

Nc1nc(=S)c2[nH]cnc2[nH]1
active: endpoint: mean survival time, dose: 8.0 mg/kg/injection, schedule: Q04DX008 (ip), vehicle: alkali diluted with saline 154 % of control | endpoint: mean survival time, dose: 8.0 mg/kg/injection, schedule: Q07DX008 (ip), vehicle: alkali diluted with saline 153 % of control | endpoint: mean survival time, dose: 12.0 mg/kg/injection, schedule: Q04DX004 (ip), vehicle: alkali diluted with saline 152 % of control | endpoint: mean survival time, dose: 12.0 mg/kg/injection, schedule: Q04DX006 (ip), vehicle: alkali diluted with saline 151 % of control | endpoint: mean survival time, dose: 13.0 mg/kg/injection, schedule: Q01DX001 (ip), vehicle: carboxymethylcellulose (CMC) 152 % of control | endpoint: mean survival time, dose: 20.0 mg/kg/injection, schedule: Q01DX001 (ip), vehicle: alkali diluted with saline 153 % of control | endpoint: mean survival time, dose: 20.0 mg/kg/injection, schedule: Q04DX003 (ip), vehicle: alkali diluted with saline 154 % of control | endpoint: mean survival time, dose: 24.0 mg/kg/injection, schedule: Q07DX003 (ip), vehicle: saline 152 % of control | endpoint: mean survival time, dose: 27.0 mg/kg/injection, schedule: Q07DX004 (ip), vehicle: alkali diluted with saline 153 % of control | endpoint: mean survival time, dose: 30.0 mg/kg/injection, schedule: Q04DX003 (ip), vehicle: alkali diluted with saline 150 % of control | endpoint: mean survival time, dose: 40.0 mg/kg/injection, schedule: Q07DX004 (ip), vehicle: alkali diluted with saline 152 % of control | endpoint: mean survival time, dose: 60.0 mg/kg/injection, schedule: Q07DX004 (ip), vehicle: alkali diluted with saline 152 % of control | endpoint: mean survival time, dose: 67.0 mg/kg/injection, schedule: Q01DX001 (ip), vehicle: alkali diluted with saline 152 % of control | endpoint: mean survival time, dose: 80.0 mg/kg/injection, schedule: Q01DX001 (ip), vehicle: alkali diluted with saline 150 % of control | endpoint: mean survival time, dose: 100.0 mg/kg/injection, schedule: Q01DX001 (ip), vehicle: alkali diluted with saline 150 % of control | endpoint: median survival time, dose: 4.0 mg/kg/injection, schedule: Q01DX009 (ip), vehicle: other 150 % of control
inactive: endpoint: mean survival time, dose: 6.0 mg/kg/injection, schedule: Q01DX Z (ip), vehicle: carboxymethylcellulose (CMC) 98 % of control | endpoint: mean survival time, dose: 7.0 mg/kg/injection, schedule: Q01DX001 (ip), vehicle: saline 104 % of control and 122 % of control | endpoint: mean survival time, dose: 8.0 mg/kg/injection, schedule: Q01DX Z (ip), vehicle: carboxymethylcellulose (CMC) 106 % of control | endpoint: mean survival time, dose: 8.3 mg/kg/injection, schedule: Q01DX Z (ip), vehicle: carboxymethylcellulose (CMC) 94 % of control | endpoint: mean survival time, dose: 9.0 mg/kg/injection, schedule: Q01DX Z (ip), vehicle: carboxymethylcellulose (CMC) 96 % of control | endpoint: mean survival time, dose: 10.0 mg/kg/injection, schedule: Q01DX010 (ip), vehicle: other 115 % of control | endpoint: mean survival time, dose: 16.0 mg/kg/injection, schedule: Q01DX Z (sc), vehicle: saline 106 % of control | endpoint: mean survival time, dose: 24.0 mg/kg/injection, schedule: Q03DX006 (ip), vehicle: saline 107 % of control | endpoint: mean survival time, dose: 24.0 mg/kg/injection, schedule: Q## X008 (ip), vehicle: alkali diluted with saline 116 % of control | endpoint: mean survival time, dose: 24.0 mg/kg/injection, schedule: Q## X024 (ip), vehicle: alkali diluted with saline 102 % of control | endpoint: mean survival time, dose: 36.0 mg/kg/injection, schedule: Q## X016 (ip), vehicle: alkali diluted with saline 105 % of control | endpoint: mean survival time, dose: 36.0 mg/kg/injection, schedule: Q## X024 (ip), vehicle: alkali diluted with saline 98 % of control | endpoint: mean survival time, dose: 50.0 mg/kg/injection, schedule: Q01DX001 (ip), vehicle: saline 118 % of control | endpoint: mean survival time, dose: 54.0 mg/kg/injection, schedule: Q## X008 (ip), vehicle: alkali diluted with saline 105 % of control | endpoint: mean survival time, dose: 54.0 mg/kg/injection, schedule: Q## X016 (ip), vehicle: alkali diluted with saline 97 % of control | endpoint: mean survival time, dose: 90.0 mg/kg/injection, schedule: Q07DX004 (ip), vehicle: alkali diluted with saline 120 % of control | endpoint: mean survival time, dose: 90.0 mg/kg/injection, schedule: Q07DX006 (ip), vehicle: alkali diluted with saline 118 % of control | endpoint: mean survival time, dose: 96.0 mg/kg/injection, schedule: Q07DX003 (ip), vehicle: saline 103 % of control | endpoint: mean survival time, dose: 100.0 mg/kg/injection, schedule: Q01DX001 (ip), vehicle: saline 112 % of control | endpoint: mean survival time, dose: 106.0 mg/kg/injection, schedule: Q04DX002 (ip), vehicle: alkali diluted with saline 98 % of control | endpoint: mean survival time, dose: 112.0 mg/kg/injection, schedule: Q01DX001 (ip), vehicle: saline 98 % of control | endpoint: mean survival time, dose: 150.0 mg/kg/injection, schedule: Q01DX001 (ip), vehicle: alkali diluted with saline 103 % of control | endpoint: mean survival time, dose: 448.0 mg/kg/injection, schedule: Q01DX001 (ip), vehicle: saline 119 % of control | endpoint: mean survival time, dose: 16.0 micrograms/kg/injection, schedule: Q01DX015 (ip), vehicle: alkali diluted with saline 100 % of control | endpoint: mean survival time, dose: 32.0 micrograms/kg/injection, schedule: Q01DX015 (ip), vehicle: alkali diluted with saline 107 % of control | endpoint: mean survival time, dose: 63.0 micrograms/kg/injection, schedule: Q01DX015 (ip), vehicle: alkali diluted with saline 107 % of control | endpoint: mean survival time, dose: 125.0 micrograms/kg/injection, schedule: Q01DX015 (ip), vehicle: alkali diluted with saline 116 % of control | endpoint: mean survival time, dose: 196.0 micrograms/kg/injection, schedule: Q01DX Z (ip), vehicle: carboxymethylcellulose (CMC) 122 % of control | endpoint: mean survival time, dose: 250.0 micrograms/kg/injection, schedule: Q01DX015 (ip), vehicle: alkali diluted with saline 103 % of control | endpoint: median survival time, dose: 16.0 mg/kg/injection, schedule: Q01DX009 (ip), vehicle: other 116 % of control
